Laboratory results: paper PMC9412362, “Design, Synthesis, and Characterization of Novel Coordination Compounds of Benzimidazole Derivatives with Cadmium” (Pharmaceutics, 2022)
Values after ≈ are worked out from the molar mass of the structure shown. Where two headings read alike, the source gives them in different places.

Legend:
[1] = system: S. typhimurium ATCC 14028; assay: MIC, micro-dilution broth method; type: cell-based, Salmonella Typhimurium; settings: Salmonella enterica, Gram-negative bacteria
Description: (§1) Samples of complexes (about 20 mg) were digested in a concentrated mixture of 36% HCl (1 mL) and 65% HNO3 (6 mL). The contents of Cd (II) in the solid complexes were determined with an F-AAS spectrometer (Analytik Jena, contraAA 300, Jena, Germany) with a continuous source of light and using an air/acetylene flame (Analytik Jena, contraAA 300). Absorbances were measured at the analytical spectral lines at 228.8 nm for Cd (II). The limit of quantification was 0.004 mg/L for Cd (II). The solid samples were decomposed using an Anton Paar Multiwave 3000 (Graz, Austria) closed-system instrument. Mineralization was carried out for 45 min at 240 °C under a pressure of 60 bar. The contents of carbon, hydrogen, and nitrogen were determined with an instrument from Vario Micro Company Elementar Analysensysteme GmbH (Langenselbold, Germany). FTIR spectra were recorded with an IR Tracer-100 Schimadzu Spectrometer (4000–600 cm^−1 with an accuracy of recording of 1 cm^−1, Kyoto, Japan) using KBr pellets. The thermal analyses were carried out with a Netzsch STA 449 F1 Jupiter thermoanalyzer (Netzsch-Geratebau GmbH, Selb, Germany) coupled with a Netzsch Aeolos Quadro QMS 403 mass spectrometer (Netzsch-Geratebau GmbH, Selb, Germany). The samples were heated up to 1000 °C in corundum crucibles with a heating rate of 10 °C/min in an atmosphere of synthetic air (20% O2, 80% N2). The cytotoxic effects of the compounds were evaluated using glioblastoma (T98G), neuroblastoma (SK-N-AS), and lung adenocarcinoma (A549) cell lines and normal human skin fibroblasts (CCD-1059Sk). T98G and SK-N-AS cells were cultured in high-glucose DMEM and A549 cells were cultured in DMEM/F12, while CCD-1059Sk cells were cultured in MEM. All media were supplemented with 10% (FBS), 100 U/mL of penicillin, and […] of streptomycin (PenStrep). Cells were incubated at 37 °C in a humidified atmosphere of 5% CO2. Stock solutions were prepared by dissolving the compounds in sterile dimethyl sulfoxide (DMSO) to obtain a concentration of 50 mg/mL. The cells were seeded into sterile 96-well plates (Nunc) at a density of 1 × 10^5 cells/mL. After 24 h of incubation, the medium was removed from each well, and then the cells were incubated for the next 24 h with different concentrations of the tested compounds (1–100 µg/mL) in their respective media containing 2% FBS. The cytotoxicity of the compounds was evaluated using an MTT assay, which was based on the conversion of 3-(4,5-dimethylthiazol-2-yl)-2,5-diphenyltetrazolium bromide (MTT) into dark-blue formazan crystals. Briefly, after 24 h of incubation of the cells with varying concentrations of the tested compounds, all culture media were removed from the plates. The cells were washed with PBS, and then 100 µL of medium containing 10% MTT solution (5 mg/mL) was added to each well. After 3 h of incubation, 100 µL (per well) of 10% SDS buffer solution was added to solubilize the formazan crystals. After overnight incubation, the absorbance was measured at 570 nm using a microplate reader (Epoch, BioTek Instruments). Experiments were repeated twice, and the measurements in each experiment were run in triplicate. The viability of the investigated cells was expressed as the percentage of the viability of the untreated cells, and the results were transformed into IC50 values (expressed as mean ± SD). The complexes were screened for antibacterial and antifungal activity by using the micro-dilution broth method with Mueller–Hinton broth for the growth of bacteria or Mueller–Hinton broth with 2% glucose for the growth of fungi. […]

E. coli ATCC 25922 = assay: MIC, micro-dilution broth method; type: cell-based, Escherichia coli; settings: Escherichia coli, ATCC25922, Gram-negative bacteria
Description: as §1

P. mirabilis ATCC 12453 = assay: MIC, micro-dilution broth method; type: cell-based, Proteus mirabilis; settings: Proteus mirabilis, ATCC12453, Gram-negative bacteria
Description: as §1

K. pneumoniae ATCC 13883 = assay: MIC, micro-dilution broth method; type: cell-based, Klebsiella pneumoniae; settings: Klebsiella pneumoniae, ATCC13883, Gram-negative bacteria
Description: as §1

P. aeruginosa ATCC 9027 = assay: MIC, micro-dilution broth method; type: cell-based, Pseudomonas aeruginosa; settings: Pseudomonas aeruginosa, ATCC9027, Gram-negative bacteria
Description: as §1

C. glabrata ATCC 2091 = assay: MIC, micro-dilution broth method; type: cell-based; settings: Yeasts; micro-dilution broth with 2% glucose
Description: as §1

C. albicans ATCC 102231 = assay: MIC, micro-dilution broth method; type: cell-based, Candida albicans; settings: Yeasts; micro-dilution broth with 2% glucose
Description: as §1

[2] = system: C. parapsilosis ATCC 22019; assay: MIC, micro-dilution broth method; type: cell-based, Candida parapsilosis; settings: Yeasts; micro-dilution broth with 2% glucose
Description: as §1

S. aureus ATCC 25923 = assay: MIC, micro-dilution broth method; type: cell-based, Staphylococcus aureus; settings: Staphylococcus aureus, ATCC25923, read-out: MIC, S. aureus ATCC 25923
Description: as §1

[3] = system: S. epidermidis ATCC 12228; assay: MIC, micro-dilution broth method; type: cell-based, Staphylococcus epidermidis; settings: Staphylococcus epidermidis, ATCC12228, read-out: MIC, S. epidermidis ATCC 12228
Description: as §1

M. luteus ATCC 10240 = assay: MIC, micro-dilution broth method; type: cell-based, Micrococcus luteus; settings: Micrococcus luteus, ATCC10240, read-out: MIC, M. luteus ATCC 10240
Description: as §1

E. faecalis ATCC 29212 = assay: MIC, micro-dilution broth method; type: cell-based, Enterococcus faecalis; settings: Enterococcus faecalis, ATCC29212, read-out: MIC, E. faecalis ATCC 29212
Description: as §1

B. subtilis ATCC 6633 = assay: MIC, micro-dilution broth method; type: cell-based, Bacillus subtilis; settings: Bacillus subtilis, ATCC6633, read-out: MIC, B. subtilis ATCC 6633
Description: as §1

B. cereus ATCC 10876 = assay: MIC, micro-dilution broth method; type: cell-based, Bacillus cereus; settings: Bacillus cereus, ATCC10876, read-out: MIC, B. cereus ATCC 10876
Description: as §1

T98G cells = assay: MTT cytotoxicity assay, glioblastoma T98G; type: cell-based, human; settings: Homo sapiens, MTT assay after 24 h of incubation, read-out: IC50 ± SD, T98G
Description: as §1

SK-N-AS cells = assay: MTT cytotoxicity assay, neuroblastoma SK-N-AS; type: cell-based, human; settings: MTT assay after 24 h of incubation, read-out: IC50 ± SD, SK-N-AS
Description: as §1

A549 cells = assay: MTT cytotoxicity assay, lung adenocarcinoma A549; type: cell-based, human; settings: Homo sapiens; lung carcinoma A549, MTT assay after 24 h of incubation; read-out: IC50 ± SD, A549
Description: as §1

CCD-1059Sk cells = assay: MTT cytotoxicity assay, normal human skin fibroblasts CCD-1059Sk; type: cell-based; settings: normal human fibroblasts CCD-1059Sk, MTT assay after 24 h of incubation; read-out: IC50 ± SD, CCD-1059-Sk
Description: as §1

O=C(O)c1cn(C2CC2)c2cc(N3CCNCC3)c(F)cc2c1=O [Cip, ciprofloxacin, reference compound] was tested, and the MIC [1] was 0.061 µg/mL (≈ 0.184 µM), the MIC (E. coli ATCC 25922) was 0.015 µg/mL (≈ 0.0453 µM) and the MIC (P. mirabilis ATCC 12453) was 0.03 µg/mL (≈ 0.0905 µM). It also gave an MIC (K. pneumoniae ATCC 13883) of 0.12 µg/mL (≈ 0.362 µM) and an MIC (P. aeruginosa ATCC 9027) of 0.49 µg/mL (≈ 1.48 µM).

With C[C@@H]1[C@H](O)[C@@H](C)/C=C/C=C/CC/C=C/C=C/C=C/C=C/C(O[C@H]2O[C@H](C)[C@@H](O)[C@H](N)[C@@H]2O)CC2O[C@](O)(CC(O)C(O)CCC(O)CC(O)CC(O)CC(=O)O[C@H]1C)CC(O)C2C(=O)O (stereo partly shown) [Nys, nystatin, reference compound] the “MIC, C. glabrata ATCC 2091” value (C. glabrata ATCC 2091) was 0.48 µg/mL (≈ 0.518 µM), the “MIC, C. albicans ATCC 102231” value (C. albicans ATCC 102231) was 0.24 µg/mL (≈ 0.259 µM) and the “MIC, C. parapsilosis ATCC 22019” value [2] was 0.24 µg/mL (≈ 0.259 µM).

CN[C@H](CC(C)C)C(=O)N[C@H]1C(=O)N[C@@H](CC(N)=O)C(=O)N[C@H]2C(=O)N[C@H]3C(=O)N[C@H](C(=O)N[C@H](C(=O)O)c4cc(O)cc(O)c4-c4cc3ccc4O)[C@H](O)c3ccc(c(Cl)c3)Oc3cc2cc(c3O[C@@H]2O[C@H](CO)[C@@H](O)[C@H](O)[C@H]2O[C@H]2C[C@](C)(N)[C@H](O)[C@H](C)O2)Oc2ccc(cc2Cl)[C@H]1O [Van, Vancomycin, reference compound] gave an MIC (S. aureus ATCC 25923) of 0.98 µg/mL (≈ 0.676 µM), an MIC [3] of 0.98 µg/mL (≈ 0.676 µM) and an MIC (M. luteus ATCC 10240) of 0.12 µg/mL (≈ 0.0828 µM). It also gave an MIC (E. faecalis ATCC 29212) of 1.95 µg/mL (≈ 1.35 µM), an MIC (B. subtilis ATCC 6633) of 0.24 µg/mL (≈ 0.166 µM) and an MIC (B. cereus ATCC 10876) of 0.98 µg/mL (≈ 0.676 µM).

COc1cc([C@@H]2c3cc4c(cc3[C@@H](O[C@@H]3O[C@@H]5CO[C@@H](C)O[C@H]5[C@H](O)[C@H]3O)[C@H]3COC(=O)[C@H]23)OCO4)cc(OC)c1O [Etoposide, reference compound] was tested, and the IC50 (T98G cells) was over 170 µM, the IC50 (SK-N-AS cells; Homo sapiens, SK-N-AS, 24 h) was 115 µM and the IC50 (SK-N-AS cells) was 115 ± 3.5 µM. For the same compound, the IC50 (A549 cells) was over 170 µM and the IC50 (CCD-1059Sk cells) was over 170 µM.
